Measured values from patent US20100298300A1, “TRIAZOLOPYRAZINE COMPOUNDS USEFUL FOR THE TREATMENT OF DEGENERATIVE & INFLAMMATORY DISEASES” (priority 2006, published 2010).

Tests used:
[1] = tested on: MMP1 expression by activated primary synovial fibroblasts; assay: 'MMP assay': MMP1 expression by complex trigger activated synovial fibroblasts (MMP1 ELISA); assay type: cell-based; settings: Homo sapiens, Fibroblast; Table 3; RASFs, complex trigger, 48 hrs, MMP1 ELISA
MAPKAPK5 = biological target: T1, MAPKAPK5 (Homo sapiens, UniProt Q8IW41); assay: MAPKAP-K5 assay (FlashPlate kinase assay)
T1 sequence (Q8IW41 1-471 isoform Q8IW41-2): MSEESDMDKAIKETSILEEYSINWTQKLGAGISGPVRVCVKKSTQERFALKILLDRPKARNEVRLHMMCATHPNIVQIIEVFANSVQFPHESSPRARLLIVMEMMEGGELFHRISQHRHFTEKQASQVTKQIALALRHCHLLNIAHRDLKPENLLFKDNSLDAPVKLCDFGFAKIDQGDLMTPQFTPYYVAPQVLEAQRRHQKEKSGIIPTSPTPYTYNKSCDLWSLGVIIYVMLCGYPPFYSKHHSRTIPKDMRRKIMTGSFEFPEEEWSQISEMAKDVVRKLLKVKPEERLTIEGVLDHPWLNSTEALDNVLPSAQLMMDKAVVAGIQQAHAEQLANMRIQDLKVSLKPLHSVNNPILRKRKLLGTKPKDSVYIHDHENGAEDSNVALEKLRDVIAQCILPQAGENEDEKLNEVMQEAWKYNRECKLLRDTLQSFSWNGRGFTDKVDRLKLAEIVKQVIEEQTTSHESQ

[2] = tested on: TNFα release by human PBMCs; assay: Cytokine release by LPS stimulated human PBMCs (TNFα ELISA); assay type: cell-based; settings: PBMC, 24 h, Table 5, LPS 1 μg/mL
Procedure: For the assay PBMCs are seeded at 2.5E6 cells/mL in 160 μL in 96-well plates (Nunc). Serial dilution of the test compounds are made first in DMSO (Sigma) and then diluted 50-fold in M199 medium (Gibco) containing 1% heat-inactivated FBS. Compounds are further 1/10 diluted in the assay plates to obtain final DMSO concentration of 0.2%. Cells are preincubated with the compounds for 1 hr at 37° C., 5% CO2. Then, cells are stimulated with LPS (Escherichia coli serotype 026:B6, Cat. No. L2654, Sigma) that is added in a volume of 20 μL to a final concentration of 1 μg/mL and cells are further cultured for 24 hr. The plates are centrifuged and the supernatant is collected and stored at −80° C. until analysis of appropriate dilutions in ELISAs.
After 4 hr incubation at RT, blocking buffer is removed and plates are washed once with PBST (1×PBS with 0.05% Tween-20 (Sigma)). Then, 40 μL of sample is transferred to the ELISA plates and plates are incubated at 4° C. […] After 2 h of incubation at RT, plates are washed as described above and 35 μL/well of a 1/2000 dilution of streptavidin-HRP conjugate (Cat. No. SNN2004, Biosource) in buffer D is added. After 45 min, plates are washed as described above and incubated for 5 min with 50 μL/well BM Chemiluminescence ELISA Substrate POD (Roche). Readout is performed on the Luminoscan Ascent Luminometer (Labsystems) with an integration time of 100 msec delivering raw data (RLU: relative luminescence units). The following controls are included in the experiments, a maximal signal control, in which the cells are activated by LPS but only the 0.2% DMSO vehicle (and thus no compound) is added. […] A minimal signal control is also included in these experiments. Here, cells are not triggered. […] Where compounds are tested at 8 concentrations (1/3 serial dilution), EC50-values can be calculated by curve fitting of the means of the PIN data achieved for a compound at each test concentration.

Row | Structure (SMILES) | EC50 [1] [nM] | IC50 (MAPKAPK5) [nM] | EC50 [2] [nM]
1 | NC(=O)c1cc(-c2cnc(Nc3ccc(OCCN4CCOCC4)cc3)c3ncnn23)cs1 [Compound 21, 4-(8-(4-(2-Morpholinoethoxy)phenylamino)-[1,2,4]triazolo[1,5-a]pyrazin-5-yl)thiophene-2-carboxamide] | 101 to 500 | 101 to 500 | > 1000
2 | NC(=O)c1ccc(-c2cnc(Nc3ccc(OCCN4CCOCC4)cc3)c3ncnn23)s1 [Compound 22, 5-(8-(4-(2-Morpholinoethoxy)phenylamino)-[1,2,4]triazolo[1,5-a]pyrazin-5-yl)thiophene-2-carboxamide] | > 1000 | 501 to 1000 | > 1000
3 | c1cc(-c2cnc(Nc3ccc(N4CCOCC4)cc3)c3ncnn23)[nH]n1 [Compound 23, (4-Morpholin-4-yl-phenyl)-[5-(2H-pyrazol-3-yl)-[1,2,4]triazolo[1,5-a]pyrazin-8-yl]-amine] | > 1000 | > 1000 | > 1000
4 | C[C@@H]1CN(c2ccc(Nc3ncc(-c4csc(C(N)=O)c4)n4ncnc34)cc2)C[C@H](C)O1 [Compound 24] | 101 to 500 | 501 to 1000 | > 1000
5 | FC(F)(F)c1cc(Nc2ncc(-c3cn[nH]c3)n3ncnc23)ccc1N1CCOCC1 [Compound 25] | > 1000 | > 1000 | > 1000
6 | CC(C)N1CCN(c2ccc(Nc3ncc(-c4cc(F)c(C(N)=O)c(F)c4)n4ncnc34)cc2)CC1 [Compound 26] | > 1000 | > 1000 | 501 to 1000
7 | NC(=O)c1cc(-c2cnc(Nc3ccc(N4CCNCC4)cc3)c3ncnn23)cs1 [Compound 27] | 501 to 1000 | 101 to 500 | > 1000
8 | CC(C)N1CCN(c2ccc(Nc3ncc(-c4csc(C(N)=O)c4)n4ncnc34)cc2)CC1 [Compound 28, 4-(8-(4-(4-Isopropylpiperazin-1-yl)phenylamino)-[1,2,4]triazolo[1,5-a]pyrazin-5-yl)thiophene-2-carboxamide] | 501 to 1000 | 1 to 100 | > 1000
9 | NC(=O)c1coc(-c2cnc(Nc3ccc(N4CCOCC4)cc3)c3ncnn23)c1 [Compound 29, 5-(8-(4-Morpholinophenylamino)-[1,2,4]triazolo[1,5-a]pyrazin-5-yl)furan-3-carboxamide] | > 1000 | > 1000 | > 1000
10 | CC(C)N1CCN(c2ccc(Nc3ncc(-c4cc(C(N)=O)co4)n4ncnc34)cc2)CC1 [Compound 30] | > 1000 | > 1000 | > 1000
11 | C[C@@H]1CN(c2ccc(Nc3ncc(-c4cn[nH]c4)n4ncnc34)cc2)[C@@H](C)CN1C [Compound 31] | > 1000 | 101 to 500 | > 1000
12 | C[C@@H]1CN(c2ccc(Nc3ncc(-c4csc(C(N)=O)c4)n4ncnc34)cc2)[C@@H](C)CN1C [Compound 32] | 501 to 1000 | 101 to 500 | 501 to 1000
13 | NC(=O)c1cc(-c2cnc(Nc3ccc(N4CCOCC4)cc3)c3ncnn23)co1 [Compound 34, 4-(8-(4-Morpholinophenylamino)-[1,2,4]triazolo[1,5-a]pyrazin-5-yl)furan-2-carboxamide] | 1 to 100 | 101 to 500 | > 1000
14 | O=C1NCCc2cc(-c3cnc(Nc4ccc(N5CCOCC5)cc4)c4ncnn34)ccc21 [Compound 35, 6-(8-(4-Morpholinophenylamino)-[1,2,4]triazolo[1,5-a]pyrazin-5-yl)-3,4-dihydroisoquinolin-1(2H)-one] | 101 to 500 | > 1000 | > 1000
15 | CC(C)N1CCN(c2ccc(Nc3ncc(-c4ccc5c(c4)CNC5=O)n4ncnc34)cc2)CC1 [Compound 36, 5-(8-(4-(4-Isopropylpiperazin-1-yl)phenylamino)-[1,2,4]triazolo[1,5-a]pyrazin-5-yl)isoindolin-1-one] | 101 to 500 | 1 to 100 | > 1000
16 | OCc1cc(Nc2ncc(-c3cn[nH]c3)n3ncnc23)ccc1N1CCOCC1 [Compound 37, {5-[5-(1H-Pyrazol-4-yl)-[1,2,4]triazolo[1,5-a]pyrazin-8-ylamino]-2-morpholinophenyl}methanol] | 501 to 1000 | > 1000 | > 1000
17 | CC(C)N1CCN(c2ccc(Nc3ncc(-c4cn[nH]c4)n4ncnc34)cc2)CC1 [Compound 38] | > 1000 | 501 to 1000 | > 1000
18 | O=C1CCc2cc(-c3cnc(Nc4ccc(N5CCOCC5)cc4)c4ncnn34)ccc2N1 [Compound 39] | > 1000 | > 1000 | > 1000
19 | c1nc2c(Nc3ccc(N4CCNCC4)cc3)ncc(-c3cn[nH]c3)n2n1 [Compound 40] | > 1000 | 501 to 1000 | 501 to 1000
20 | c1nc2c(Nc3ccc(N4CCOCC4)nc3)ncc(-c3cn[nH]c3)n2n1 [Compound 41, (6-[Morpholin-4-yl]pyridin-3-yl)-[5-(1H-pyrazol-4-yl)-[1,2,4]triazolo[1,5-a]pyrazin-8-yl]amine] | > 1000 | > 1000 | > 1000
21 | c1nc2c(Nc3ccc(N4CCN(CC5CC5)CC4)nc3)ncc(-c3cn[nH]c3)n2n1 [Compound 42, [6-(4-[Cyclopropylmethyl]piperazin-1-yl)pyridin-3-yl]-[5-(1H-pyrazol-4-yl)-[1,2,4]triazolo[1,5-a]pyrazin-8-yl]amine] | > 1000 | > 1000 | > 1000
22 | FC(F)(F)CN1CCN(c2ccc(Nc3ncc(-c4cn[nH]c4)n4ncnc34)cn2)CC1 [Compound 44, [5-(1H-Pyrazol-4-yl)-[1,2,4]triazolo[1,5-a]pyrazin-8-yl]-{6-[4-(2,2,2-trifluoroethyl)piperazin-1-yl]pyridin-3-yl}amine] | > 1000 | > 1000 | > 1000
23 | FC(F)(F)CN1CCN(c2ccc(Nc3ncc(-c4cn[nH]c4)n4ncnc34)cc2)CC1 [Compound 45] | > 1000 | > 1000 | > 1000
24 | c1nc2c(Nc3ccc(N4CCN(CC5CC5)CC4)cc3)ncc(-c3cn[nH]c3)n2n1 [Compound 46, {4-[4-(Cyclopropylmethyl)piperazin-1-yl]phenyl}-[5-(1H-pyrazol-4-yl)-[1,2,4]triazolo[1,5-a]pyrazin-8-yl]amine] | > 1000 | > 1000 | > 1000
25 | NC(=O)c1cc(-c2cnc(Nc3ccc(N4CCOCC4)nc3)c3ncnn23)cs1 [Compound 47, 4-[8-(6-[Morpholin-4-yl]pyridin-3-ylamino)-[1,2,4]triazolo[1,5-a]pyrazin-5-yl]thiophene-2-carboxylic acid amide] | 501 to 1000 | 101 to 500 | > 1000
26 | c1ccc2c(-c3cnc(Nc4ccc(N5CCOCC5)cc4)c4ncnn34)csc2c1 [Compound 48, (5-Benzo[b]thiophen-3-yl-[1,2,4]triazolo[1,5-a]pyrazin-8-yl)-(4-morpholin-4-ylphenyl)amine] | 101 to 500 | > 1000 | > 1000
27 | CC(C)N1CCN(c2ccc(Nc3ncc(-c4csc5ccccc45)n4ncnc34)cc2)CC1 [Compound 49] | > 1000 | > 1000 | > 1000
28 | c1nc2c(Nc3ccc(N4CCOCC4)cc3)ncc(-c3ccsc3)n2n1 [Compound 50, (4-Morpholin-4-ylphenyl)-(5-thiophen-3-yl-[1,2,4]triazolo[1,5-a]pyrazin-8-yl)amine] | 101 to 500 | > 1000 | > 1000
29 | CC(C)N1CCN(c2ccc(Nc3ncc(-c4ccsc4)n4ncnc34)cc2)CC1 [Compound 51, [4-(4-Isopropylpiperazin-1-yl)phenyl]-(5-thiophen-3-yl-[1,2,4]triazolo[1,5-a]pyrazin-8-yl)amine] | 501 to 1000 | > 1000 | > 1000
